Experimental data reported in patent publication US20250057791A1, “PROTECTION AGAINST ARTHROPOD PARASITES WITH PURINERGIC RECEPTOR (OPR) ANTAGONISTS” (priority 2021, published 2025).
Residues, ends and D or L forms follow the SMILES beside them.

Legend:
A. gambiae = test: Membrane feeding assay, A. gambiae; type: in vivo, Anopheles gambiae; conditions: for % reduction in feeding: with 20 μM ATP; for effect on feeding on solution containing ATP, in words: 20 μM ATP, CPT at 10 μM
Description: (§1) Experiments with A. gambiae and A. stephensi were made in a climate chamber at 28° C. and 80% RH during the last 6 hours of scotophase. As a sugar meal can interfere with the blood meal by reducing the number of females that feed, the sucrose solution supplied in rearing cages to mosquitoes employed for feeding experiments was reduced to 5%. […] The 5% sucrose solution was presented to mosquitoes from emergence on four 1 cm diam. cotton dental rolls (Hartmann A G, Neuhausen, Switzerland) inserted in 10 ml upturned glass vials placed in holes at each corner of the rearing cage ceiling. Cotton rolls were turned daily in vials and renewed every two days. Mosquitoes were not fed blood and were deprived of sucrose 17 to 20 hours before experiments. Thirty min before a feeding experiment, between 10-25, 6-day-old females that responded to activation by human breath were removed with a mouth aspirator from the rearing cage wall and placed in polystyrol cylinders with the floor cut out (10 cm dm×15 cm high; Semadeni, Ostermundigen, Switzerland) that served as feeding cages. Each cage was covered with mosquito netting at one end and a soft polyurethane lid at the other.
(§2) Mosquitoes were fed for 30 min using a feeding system (Hemotek®, Hemotek Ltd, Blackburn, UK) consisting of 3.5 ml stainless steel reservoirs 37 mm in diameter covered with a 60-90 μm thick silicone-impregnated membrane (Kröber and Guerin, 2007 in “Feeding assays for hard ticks”, Trends in parasitology 23, 445-449; doi 10.1016/j.pt.2007.07.010). Feeding reservoirs reached a temperature of 37° C. within 10 min and were placed on the netting of feeding cages. Mosquitoes were activated using a 200 ms pulse of pure CO2 (volume 6.25 ml) from a pressurised cylinder (Carbagas, Switzerland) using a solenoid valve that caused the CO2 level in the feeding cage to rise to at least 1,500 ppm. Between 3 and 4 sets of 10 feeding cages held in a custom-built Ertacetal® POM frame were tested per day, depending of the number of female mosquitoes available from the colony.
(§3) All compounds were tested in a mosquito feeding solution (FS) consisting of 25 mM dextrose, 25 mM NaCl buffered with 8.93 mM NaHCO3 adjusted to pH 7.4. Feeding responses of A. gambiae and A. stephensi to ATP as a function of dose were tested with between 7 to 10 feeding cages per dose. Each feeding experiment with an antagonist systematically included a treatment containing the FS as negative control along with a treatment containing the FS with 20 pM ATP added as positive control for A. gambiae and with 160 pM ATP added as positive control for A. stephensi. These positive and negative controls permitted to monitor any effect of experimental day on feeding responses as a function of dose for antagonists that were recorded over several days. […] Four to 10 cages each with 10 to 29 mosquitoes were tested per antagonist dose. […] The number of feeding cages used to test other compounds and their mixtures as feeding stimulants or as feeding inhibitors is listed on Table 6. The percentage of fed mosquitoes was estimated by visual inspection of abdominal distention that is indicative of engorgement.
(§4) Pairwise comparisons of A. gambiae electrophysiological (EP) responses to ATP and adenosine alone and combined with a given dose of PR antagonist, EP responses to ATP alone and combined with a given dose of a metal modulator, and EP responses to ATP prior to and after exposure of a sensillum to a given dose of a PR antagonist were made with a one-tailed Wilcoxon signed-rank test for data showing a non-normal distribution, with a paired Student's t-test for normally distributed data showing homogeneous variance and with a Welch's t-test for normally distributed data showing non-homogeneous variance. […]

[1] = system: A. gambiae mouthpart ATP-sensitive receptor; test: Electrophysiological response to 200 pM ATP with PR antagonist admixed; type: cell-based, Anopheles gambiae; conditions: for effect on EP response to ATP, in words: suramin at 1 nM; for ID95 in nM (±s.e.m.): increasing doses admixed to 200 pM ATP
Description: (§5) The tip recording method was used to record action potentials (spikes) from sensory cells in sensilla on A. gambiae labellum lobes.
(§6) Sensilla were exposed to test compounds and PR antagonists for ca. 2-4 s and spikes were counted in the first 2 s of recordings. Up to 4 test compounds were tested on a sensillum to evaluate potential agonists, each presented at 200 pM. To study responses as a function of dose for agonists ATP, adenosine, AMP, AMP-CPP and ATP+adenosine, up to 7 recordings were made at increasing doses of agonist from the same sensillum. Unless otherwise stated, recordings were made throughout from 4 to 16 sensilla from individual 4-6-day-old females per dose of agonist, antagonist and metal ion modulator. For example, a response curve established over 6 doses of an antagonist using 8 sensilla per dose involved recording from a sensillum of 48 separate mosquitoes. A given dose of a PR antagonist or metal ion modulator was only presented once to a sensillum. Two-second recordings were imported as ASCII files into DataView software for analysis of spike amplitude. Differences in spike amplitude generated by stimulation of one 8v sensillum/female with 1 mM sucrose (n=294 spikes from 6 females) 200 pM adenosine (n=207 spikes from 7 females) and 200 pM ATP (n=192 spikes from 7 females) were compared by measuring the spike amplitude in mV between the highest point of depolarisation and the lowest point of hyperpolarisation.
Pairwise comparisons of A. gambiae electrophysiological (EP) responses to ATP and adenosine alone and combined with a given dose of PR antagonist, EP responses to ATP alone and combined with a given dose of a metal modulator, and EP responses to ATP prior to and after exposure of a sensillum to a given dose of a PR antagonist were made with a one-tailed Wilcoxon signed-rank test for data showing a non-normal distribution, with a paired Student's t-test for normally distributed data showing homogeneous variance and with a Welch's t-test for normally distributed data showing non-homogeneous variance. Effects on feeding of adding ATP, AMP-CPP, adenosine, ATP+adenosine, AMP and ADP-βS, CPT with ATP or adenosine, TMP with ATP+adenosine, TMP+CPT with ATP+adenosine to the FS for A. gambiae, and of adding PR antagonists with ATP to the FS for A. stephensi were compared using one-tailed Mann-Whitney U-test or Welch's t-test, depending on data distribution; Holm's FWEC was applied where treatment comparisons involved the same positive control. Percent feeding inhibition induced by PR antagonists in A. stephensi was calculated using Abbott's formula.
Dose-response models fitted to mosquito data were generated using the ‘drm’ command in the “drc” R package (version 2.5-12). Best fitting models (goodness of fit) and effects of dose of a compound were assessed using, respectively, ‘modelFit’ and ‘noEffect’ functions in the same R package. A 3-parameter logistic model (L3) was fitted to spike-counts recorded to increasing doses of adenosine, AMP, ATP and AMP-CPP. Spike numbers recorded in response to 200 pM ATP with increasing doses of PR antagonists added were analysed using a 4-parameter log-logistic model (LL.4) for A-317491 and spinorphin, using a 4-parameter Weibull model (W1.4) for PPADS, RB-2 and TMP, and using a 3-parameter log-logistic model (LL.3) for suramin. An L3 model was fitted to proportions of females feeding on increasing doses of ATP. Feeding rates on 20 μM ATP with increasing doses of a PR antagonist added were analysed using a 4-parameter log-logistic model (LL.4) with the median of the positive control (20 μM ATP) fixed as the upper asymptote. Response dynamics in 3-parameter models are related to the slope b, the upper asymptote, and inflexion point of the model e (the ED50 value), whereas 4 parameter models also include the lower asymptote parameter. […]

malaria mosquito P1 PR = test: Electrophysiological response to 200 pM adenosine with PR antagonist admixed; type: cell-based, Anopheles gambiae
Description: as §5
as §6, with “Differences in spike amplitude generated by stimulation of one 8v sensillum/female with 1 mM sucrose (n=294 spikes from 6 females) 200 pM adenosine (n=207 spikes from 7 females) and 200 pM ATP (n=192 spikes from 7 females) were compared by measuring the spike amplitude in mV between the highest point of depolarisation and the lowest point of hyperpolarisation.” left out
Pairwise comparisons of A. gambiae electrophysiological (EP) responses to ATP and adenosine alone and combined with a given dose of PR antagonist, EP responses to ATP alone and combined with a given dose of a metal modulator, and EP responses to ATP prior to and after exposure of a sensillum to a given dose of a PR antagonist were made with a one-tailed Wilcoxon signed-rank test for data showing a non-normal distribution, with a paired Student's t-test for normally distributed data showing homogeneous variance and with a Welch's t-test for normally distributed data showing non-homogeneous variance. […] Percent feeding inhibition induced by PR antagonists in A. stephensi was calculated using Abbott's formula.

A. stephensi = test: Membrane feeding assay, A. stephensi; type: in vivo, Anopheles stephensi
Description: as §1, §2
as §3, with “with 20 pM ATP added as positive control for A. gambiae and with 160 pM ATP added as positive control for A. stephensi.” left out
as §4

CC(C)C[C@H](N)C(=O)N[C@H](C(=O)N[C@H](C(=O)N[C@@H](Cc1ccc(O)cc1)C(=O)N1CCC[C@H]1C(=O)N[C@@H](Cc1c[nH]c2ccccc12)C(=O)N[C@H](C(=O)O)[C@@H](C)O)C(C)C)C(C)C [Spinorphin, L-leucyl-L-valyl-L-valyl-L-tyrosly-L-prolyl-L-tryptophyl-L-threonine] (H-LVVYPWT-OH)
% reduction in feeding (A. gambiae; 100 nM): (100 nM, 27.31%) | effect on feeding on solution containing ATP, in words (A. gambiae): inhibited feeding | % fed mosquitoes (mean ± s.e.m.), ATP + antagonist (A. gambiae; antagonist 100 nM + 20 μM ATP): 46.62% | effect on EP response to ATP, in words ([1]; 200 pM ATP): inhibited | Mean no. of spikes per 2 s (±s.e.m.), ATP + antagonist ([1]; antagonist 1 nM + 200 pM ATP): 9.8 spikes per 2 s | ID95 in nM (±s.e.m.) [1]: 0.43 nM | ID95 in nM (±s.e.m.) ([1]; listed as spinorphin): ca. 0.4 nM

Cn1c(=O)c2[nH]c(C3CCCC3)nc2n(C)c1=O [CPT, 8-cyclopentyl-1,3-dimethylxanthine]
% Engorged mosquitoes (A. gambiae; 10 μM CPT + 20 μM ATP): 65.4 ± 10.2% | % Engorged mosquitoes (A. gambiae; 10 μM CPT + 1 mM Adenosine): 48.7 ± 7.0% | effect on feeding on adenosine, in words (A. gambiae; 10 μM CPT, 1 mM adenosine in feeding solution): significantly inhibited | effect on feeding on solution containing ATP, in words (A. gambiae): not | effect on EP response to ATP, in words ([1]; 200 pM ATP): not | effect on EP response to adenosine, in words (malaria mosquito P1 PR; 200 pM adenosine, suramin at 1 nM): inhibited | duration of inhibition of the response to adenosine (malaria mosquito P1 PR; adenosine presented again approximately 2 min after antagonist): at least 2 min

Nc1c(S(=O)(=O)O)cc(Nc2ccc(Nc3nc(Cl)nc(Nc4cccc(S(=O)(=O)O)c4)n3)c(S(=O)(=O)O)c2)c2c1C(=O)c1ccccc1C2=O [RB-2, 1-amino-4-[[4-[[4-chloro-6-[[3 (or 4)-sulfophenyl]amino]-1,3,5-triazin-2-yl]amino]-3-sulfophenyl]amino]-9,10-dihydro-9,10-dioxo-2-anthracenesulfonic acid]
effect on feeding on solution containing ATP, in words (A. gambiae): inhibited feeding | % fed mosquitoes (mean ± s.e.m.), ATP + antagonist (A. gambiae; antagonist 0.1 μM + 20 μM ATP): 32.88% | persistent antagonism to ATP presented approximately 2 min later, in words ([1]; 200 pM ATP): not | effect on EP response to ATP, in words ([1]; 200 pM ATP): inhibited | Mean no. of spikes per 2 s (±s.e.m.), ATP + antagonist ([1]; antagonist 50 nM + 200 pM ATP): 12.83 spikes per 2 s | ID95 in nM (±s.e.m.) [1]: 113.02 nM

Clc1cccc(-c2nnnn2Cc2cccnc2)c1Cl [A-438079, 3-[[5-(2,3-dichlorophenyl)tetrazol-1-yl]methyl]pyridine]
% reduction in feeding (A. gambiae; 20 μM): (20 μM, 30.74%) | % fed mosquitoes (mean ± s.e.m.), ATP + antagonist (A. gambiae; antagonist 20 μM + 20 μM ATP): 48.65% | Mean no. of spikes per 2 s (±s.e.m.), ATP + antagonist ([1]; antagonist 1000 nM + 200 pM ATP): 22.57 spikes per 2 s | ID50/ID95: block at maximum dose tested ([1]; maximum dose 1 μM, admixed to 200 pM ATP): No block (1 μM)

Cc1nc(/N=N/c2ccc(S(=O)(=O)O)cc2S(=O)(=O)O)c(COP(=O)(O)O)c(C=O)c1O [PPADS, pyridoxal phosphate-6-azophenyl-2′,4′-disulfonic acid]
% Fed females (mean ± s.e.m.) (A. stephensi; 800 μM, feeding solution with 160 μM ATP): 37.29 ± 3.75% | inhibition at 800 µM (A. stephensi; Anopheles stephensi, 800 μM, Abbott's formula): 48.9% | effect on feeding on solution containing ATP, in words (A. stephensi; doses as in Table 8): inhibited feeding | effect on feeding on solution containing ATP, in words (A. gambiae): inhibited feeding | % fed mosquitoes (mean ± s.e.m.), ATP + antagonist (A. gambiae; antagonist 100 μM + 20 μM ATP): 33.39% | Mean no. of spikes per 2 s (±s.e.m.), ATP + antagonist ([1]; antagonist 50 nM + 200 pM ATP): 8.13 spikes per 2 s | ID95 in nM (±s.e.m.) [1]: 12.66 nM

Cn1c(=O)c2[nH]cnc2n(C)c1=O [Theophylline, 1,3-dimethylxanthine]
EP response, adenosine theophylline combination (malaria mosquito P1 PR; 1 μM theophylline + 200 pM adenosine): 17.63±4.48 spikes/2s
